Laboratory results reported in PubChem BioAssay (NCI).
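Results reflect a 48-hour exposure of cells in 96-well plates to compound at five concentrations. GI50 = concentration required for 50% inhibition of growth. TGI marks complete inhibition of growth.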

What was measured:
Assay in all cases: growth of human tumour cells (NCI), 48 h
TK-10 renal = tested on: TK-10 renal
T-47D breast = tested on: T-47D breast
CAKI-1 renal = tested on: CAKI-1 renal
NCI/ADR-RES ovarian = tested on: NCI/ADR-RES ovarian
UO-31 renal = tested on: UO-31 renal
OVCAR-4 ovarian = tested on: OVCAR-4 ovarian
DU-145 prostate = tested on: DU-145 prostate
HOP-62 NSCLC = tested on: HOP-62 NSCLC
SNB-75 CNS = tested on: SNB-75 CNS
SF-295 CNS = tested on: SF-295 CNS
HCC-2998 colon = tested on: HCC-2998 colon
HL-60(TB) leukemia = tested on: HL-60(TB) leukemia
OVCAR-3 ovarian = tested on: OVCAR-3 ovarian
BT-549 breast = tested on: BT-549 breast
RXF 393 renal = tested on: RXF 393 renal
LOX IMVI melanoma = tested on: LOX IMVI melanoma
EKVX NSCLC = tested on: EKVX NSCLC
SW-620 colon = tested on: SW-620 colon
SF-539 CNS = tested on: SF-539 CNS
NCI-H460 lung = tested on: NCI-H460 lung
SK-MEL-2 melanoma = tested on: SK-MEL-2 melanoma
HT29 colon = tested on: HT29 colon
MDA-MB-231 breast = tested on: MDA-MB-231 breast
IGROV1 ovarian = tested on: IGROV1 ovarian
U251 CNS = tested on: U251 CNS
OVCAR-5 ovarian = tested on: OVCAR-5 ovarian
HCT-15 colon = tested on: HCT-15 colon
SK-MEL-28 melanoma = tested on: SK-MEL-28 melanoma
SNB-19 CNS = tested on: SNB-19 CNS
OVCAR-8 ovarian = tested on: OVCAR-8 ovarian
NCI-H23 lung = tested on: NCI-H23 lung
A549 NSCLC = tested on: A549 NSCLC
SF-268 CNS = tested on: SF-268 CNS
MDA-MB-435 = tested on: MDA-MB-435
KM12 colon = tested on: KM12 colon
CCRF-CEM leukemia = tested on: CCRF-CEM leukemia
PC-3 prostate = tested on: PC-3 prostate
786-0 renal = tested on: 786-0 renal
MALME-3M melanoma = tested on: MALME-3M melanoma
A498 renal = tested on: A498 renal
MOLT-4 leukemia = tested on: MOLT-4 leukemia
NCI-H226 lung = tested on: NCI-H226 lung
HCT-116 colon = tested on: HCT-116 colon
SK-OV-3 ovarian = tested on: SK-OV-3 ovarian
SK-MEL-5 melanoma = tested on: SK-MEL-5 melanoma
UACC-62 melanoma = tested on: UACC-62 melanoma
HOP-92 NSCLC = tested on: HOP-92 NSCLC
RPMI-8226 leukemia = tested on: RPMI-8226 leukemia
MCF7 breast = tested on: MCF7 breast
M14 melanoma = tested on: M14 melanoma
SR leukemia = tested on: SR leukemia
UACC-257 melanoma = tested on: UACC-257 melanoma
HS 578T breast = tested on: HS 578T breast
SN12C renal = tested on: SN12C renal
NCI-H522 lung = tested on: NCI-H522 lung
ACHN renal = tested on: ACHN renal
COLO 205 colon = tested on: COLO 205 colon
K-562 leukemia = tested on: K-562 leukemia

Question: Which results are given for CNC(=O)CCN1CCN(CC/C=C2\c3ccccc3Sc3ccc(Cl)cc32)CC1?
Answer: GI50 (TK-10 renal): 14 µM; TGI (TK-10 renal): 29.2 µM; GI50 (T-47D breast): 9.21 µM; TGI (T-47D breast): 26.5 µM; GI50 (CAKI-1 renal): 3.42 µM; TGI (CAKI-1 renal): 19.7 µM; GI50 (NCI/ADR-RES ovarian): 7.08 µM; TGI (NCI/ADR-RES ovarian): 16.5 µM; GI50 (UO-31 renal): 11.4 µM; TGI (UO-31 renal): 27.4 µM; GI50 (OVCAR-4 ovarian): 13.2 µM; TGI (OVCAR-4 ovarian): 28.2 µM; GI50 (DU-145 prostate): 11.9 µM; TGI (DU-145 prostate): 26.4 µM; GI50 (HOP-62 NSCLC): 14.6 µM; TGI (HOP-62 NSCLC): 32.7 µM; GI50 (SNB-75 CNS): 7.43 µM; TGI (SNB-75 CNS): 23.1 µM; GI50 (SF-295 CNS): 1.84 µM; TGI (SF-295 CNS): 6.47 µM; GI50 (HCC-2998 colon): 7.94 µM; TGI (HCC-2998 colon): 24.2 µM; GI50 (HL-60(TB) leukemia): 4.33 µM; TGI (HL-60(TB) leukemia): > 41.1 µM; GI50 (OVCAR-3 ovarian): 11.8 µM; TGI (OVCAR-3 ovarian): 27 µM; GI50 (BT-549 breast): 10.7 µM; TGI (BT-549 breast): 24 µM; GI50 (RXF 393 renal): 3.55 µM; TGI (RXF 393 renal): 20.4 µM; GI50 (LOX IMVI melanoma): 5.15 µM; TGI (LOX IMVI melanoma): 18.9 µM; GI50 (EKVX NSCLC): 14.5 µM; TGI (EKVX NSCLC): 30.6 µM; GI50 (SW-620 colon): 9.18 µM; TGI (SW-620 colon): 23.6 µM; GI50 (SF-539 CNS): 12.5 µM; TGI (SF-539 CNS): 25.6 µM; GI50 (NCI-H460 lung): 7.02 µM; TGI (NCI-H460 lung): 21.6 µM; GI50 (SK-MEL-2 melanoma): 14.1 µM; TGI (SK-MEL-2 melanoma): 32.4 µM; GI50 (HT29 colon): 3.11 µM; TGI (HT29 colon): 12.4 µM; GI50 (MDA-MB-231 breast): 10.6 µM; TGI (MDA-MB-231 breast): 24.7 µM; GI50 (IGROV1 ovarian): 15.1 µM; TGI (IGROV1 ovarian): 37.3 µM; GI50 (U251 CNS): 7.22 µM; TGI (U251 CNS): 20.7 µM; GI50 (OVCAR-5 ovarian): 22.6 µM; TGI (OVCAR-5 ovarian): 41.2 µM; GI50 (HCT-15 colon): 6.57 µM; TGI (HCT-15 colon): 20.6 µM; GI50 (SK-MEL-28 melanoma): 1.76 µM; TGI (SK-MEL-28 melanoma): 3.36 µM; GI50 (SNB-19 CNS): 16 µM; TGI (SNB-19 CNS): 30.7 µM; GI50 (OVCAR-8 ovarian): 14.4 µM; TGI (OVCAR-8 ovarian): 32.2 µM; GI50 (NCI-H23 lung): 14.4 µM; TGI (NCI-H23 lung): 32.5 µM; GI50 (A549 NSCLC): 10.7 µM; TGI (A549 NSCLC): 28.5 µM; GI50 (SF-268 CNS): 9.83 µM; TGI (SF-268 CNS): 23.9 µM; GI50 (MDA-MB-435): 1.96 µM; TGI (MDA-MB-435): 4.91 µM; GI50 (KM12 colon): 7.53 µM; TGI (KM12 colon): 23.5 µM; GI50 (CCRF-CEM leukemia): 6.31 µM; TGI (CCRF-CEM leukemia): 44.8 µM; GI50 (PC-3 prostate): 9.07 µM; TGI (PC-3 prostate): > 45 µM; GI50 (786-0 renal): 12.1 µM; TGI (786-0 renal): 27.4 µM; GI50 (MALME-3M melanoma): 2.59 µM; TGI (MALME-3M melanoma): 6.16 µM; GI50 (A498 renal): 6.89 µM; TGI (A498 renal): 19.9 µM; GI50 (MOLT-4 leukemia): 6.56 µM; TGI (MOLT-4 leukemia): > 34.1 µM; GI50 (NCI-H226 lung): 19 µM; TGI (NCI-H226 lung): 37.9 µM; GI50 (HCT-116 colon): 5.76 µM; TGI (HCT-116 colon): 20.9 µM; GI50 (SK-OV-3 ovarian): 16.4 µM; TGI (SK-OV-3 ovarian): 31.2 µM; GI50 (SK-MEL-5 melanoma): 2.41 µM; TGI (SK-MEL-5 melanoma): 6.18 µM; GI50 (UACC-62 melanoma): 1.92 µM; TGI (UACC-62 melanoma): 3.62 µM; GI50 (HOP-92 NSCLC): 5.75 µM; TGI (HOP-92 NSCLC): 27 µM; GI50 (RPMI-8226 leukemia): 3.65 µM; TGI (RPMI-8226 leukemia): 18.2 µM; GI50 (MCF7 breast): 4.91 µM; TGI (MCF7 breast): 18.9 µM; GI50 (M14 melanoma): 2.1 µM; TGI (M14 melanoma): 4.4 µM; GI50 (SR leukemia): 4.19 µM; TGI (SR leukemia): 18.1 µM; GI50 (UACC-257 melanoma): 1.53 µM; TGI (UACC-257 melanoma): 3.06 µM; GI50 (HS 578T breast): 3.67 µM; TGI (HS 578T breast): 20.5 µM; GI50 (SN12C renal): 12.1 µM; TGI (SN12C renal): 26.6 µM; GI50 (NCI-H522 lung): 20 µM; TGI (NCI-H522 lung): 43.8 µM; GI50 (ACHN renal): 13.8 µM; TGI (ACHN renal): 27.1 µM; GI50 (COLO 205 colon): 2.48 µM; TGI (COLO 205 colon): 6 µM; GI50 (K-562 leukemia): 4.2 µM; TGI (K-562 leukemia): > 37.1 µM
